This note sets out measurements from PubChem BioAssay (NCI).

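In this assay, cells in 96-well plates receive the compound at five concentrations for 48 hours. Endpoints are linearly interpolated between the surrounding concentrations. TGI: total growth inhibition.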

Test systems include MCF7 breast; NCI-H23 lung; HOP-62 NSCLC; SW-620 colon; SF-268 CNS; A549 NSCLC; CCRF-CEM leukemia; SK-MEL-28 melanoma; SF-539 CNS; MOLT-4 leukemia; UO-31 renal; MDA-MB-231 breast; CAKI-1 renal; SNB-19 CNS; HOP-92 NSCLC; SK-MEL-2 melanoma; UACC-257 melanoma; OVCAR-5 ovarian; U251 CNS.
Holding throughout (test): NCI-60 cell line screen, 48 h

Regarding `O=P(c1ccccc1)(c1ccccc1)c1ccc2c(c1)OCCOCCOCCOCCO2`, the TGI with MCF7 breast, with NCI-H23 lung, in the experiment with HOP-62 NSCLC, in the experiment on SW-620 colon, in the experiment on SF-268 CNS and with A549 NSCLC was > 100 µM each time. Further, the TGI with CCRF-CEM leukemia, with SK-MEL-28 melanoma, in the experiment on SF-539 CNS, in the experiment with MOLT-4 leukemia, with UO-31 renal and in the experiment on MDA-MB-231 breast was > 100 µM throughout. For the same compound, the TGI in the experiment with CAKI-1 renal and with SNB-19 CNS was > 100 µM in each case.
Turning to `C/C=C1\CNC1C(=O)O` (stereo not drawn), the TGI in the experiment on MCF7 breast, with NCI-H23 lung, in the experiment with HOP-62 NSCLC, with HOP-92 NSCLC, in the experiment on SW-620 colon and in the experiment on SF-268 CNS was > 100 µM each time. Further, the TGI with SK-MEL-2 melanoma, in the experiment with A549 NSCLC, with CCRF-CEM leukemia, in the experiment with SK-MEL-28 melanoma, in the experiment with UACC-257 melanoma and with SF-539 CNS was > 100 µM in each case. Besides, the TGI in the experiment with OVCAR-5 ovarian, in the experiment with UO-31 renal, in the experiment on CAKI-1 renal and in the experiment with SNB-19 CNS was > 100 µM throughout.
In the case of `C[C@@H](CO)C1=CC(C#C[Si](C)(C)C)N(C(=O)Oc2ccccc2)c2ccccc21` (stereo partly drawn), the TGI in the experiment on U251 CNS is 35.8 µM; in the experiment with NCI-H23 lung, 23.1 µM; in the experiment with HOP-62 NSCLC it was 30 µM; with HOP-92 NSCLC, 24.6 µM; with SW-620 colon, > 100 µM; in the experiment on SF-268 CNS, 39 µM. Moreover, the TGI in the experiment on SK-MEL-2 melanoma was 35.3 µM; with A549 NSCLC it was 61.4 µM; in the experiment on CCRF-CEM leukemia, 72.6 µM; in the experiment with SK-MEL-28 melanoma, 36.3 µM; with UACC-257 melanoma, 38.3 µM; with SF-539 CNS, 41.6 µM. For the same compound, the TGI in the experiment on MOLT-4 leukemia is > 100 µM; in the experiment with OVCAR-5 ovarian, 57.1 µM; in the experiment on UO-31 renal, 30.4 µM; in the experiment on MDA-MB-231 breast it was 37.8 µM; with CAKI-1 renal, 56.8 µM; in the experiment on SNB-19 CNS it was 82 µM.
As to `COC(=O)c1cnn2c1ccc1ccccc12`, the TGI in the experiment with U251 CNS, in the experiment on NCI-H23 lung, in the experiment on HOP-62 NSCLC, in the experiment with HOP-92 NSCLC, with SW-620 colon and with SF-268 CNS was > 100 µM each time. Further, the TGI in the experiment with SK-MEL-2 melanoma, in the experiment on A549 NSCLC, with CCRF-CEM leukemia, in the experiment on SK-MEL-28 melanoma, with UACC-257 melanoma and in the experiment on SF-539 CNS was > 100 µM in each case. In addition, the TGI in the experiment on MOLT-4 leukemia, in the experiment on OVCAR-5 ovarian, in the experiment with UO-31 renal, in the experiment with MDA-MB-231 breast, with CAKI-1 renal and with SNB-19 CNS was > 100 µM in each case.
Consider `C(=NCCCN1CCN(CCCN=Cc2cccc3ccccc23)CC1)c1cccc2ccccc12`, for which the TGI in the experiment with U251 CNS, with NCI-H23 lung, in the experiment with HOP-62 NSCLC, in the experiment with SW-620 colon, in the experiment on SF-268 CNS and in the experiment with SK-MEL-2 melanoma was > 100 µM each time. In addition, the TGI with A549 NSCLC, in the experiment on CCRF-CEM leukemia, with SK-MEL-28 melanoma, in the experiment with UACC-257 melanoma, with SF-539 CNS and with MOLT-4 leukemia was > 100 µM each time. The TGI with OVCAR-5 ovarian, with UO-31 renal, in the experiment with MDA-MB-231 breast, in the experiment on CAKI-1 renal and with SNB-19 CNS was > 100 µM in each case.
`CC(C)(C)OC(=O)CC(NC(=O)OC(C)(C)C)C(=O)NC(C(=O)O)C(O)c1ccccc1` (stereo not drawn): the TGI in the experiment with U251 CNS, in the experiment on MCF7 breast, in the experiment on NCI-H23 lung, in the experiment with HOP-62 NSCLC, in the experiment on SW-620 colon and in the experiment on SF-268 CNS was > 100 µM in each case. The TGI in the experiment with SK-MEL-2 melanoma, with A549 NSCLC, with CCRF-CEM leukemia, in the experiment with SK-MEL-28 melanoma, with UACC-257 melanoma and in the experiment on SF-539 CNS was > 100 µM throughout. Further, the TGI in the experiment on MOLT-4 leukemia, in the experiment with OVCAR-5 ovarian, in the experiment on UO-31 renal, with MDA-MB-231 breast, in the experiment with CAKI-1 renal and in the experiment on SNB-19 CNS was > 100 µM each time.
Turning to `CC(C)[Si](OC1=C(C(=O)N(C)c2ccccc2Cl)CCCCC1)(C(C)C)C(C)C`, the TGI with U251 CNS, with NCI-H23 lung, with HOP-62 NSCLC, in the experiment with HOP-92 NSCLC, in the experiment on SW-620 colon and in the experiment with SF-268 CNS was > 100 µM each time. Moreover, the TGI in the experiment with A549 NSCLC, in the experiment on SK-MEL-28 melanoma, with UACC-257 melanoma, in the experiment with SF-539 CNS, in the experiment with MOLT-4 leukemia and with OVCAR-5 ovarian was > 100 µM throughout. Further, the TGI with UO-31 renal, with MDA-MB-231 breast, in the experiment with CAKI-1 renal and in the experiment with SNB-19 CNS was > 100 µM each time.
In the case of `c1ccc2sc(C3(N4CCC5(CC4)OCCO5)CCCCC3)cc2c1`, the TGI in the experiment on MCF7 breast, with NCI-H23 lung, with HOP-62 NSCLC, in the experiment on HOP-92 NSCLC, in the experiment on SW-620 colon and with SF-268 CNS was > 100 µM each time. The TGI in the experiment with A549 NSCLC, in the experiment with CCRF-CEM leukemia, in the experiment with SK-MEL-28 melanoma, with UACC-257 melanoma, in the experiment on SF-539 CNS and in the experiment on MOLT-4 leukemia was > 100 µM throughout. Besides, the TGI in the experiment on OVCAR-5 ovarian, in the experiment on UO-31 renal, in the experiment on CAKI-1 renal and with SNB-19 CNS was > 100 µM throughout.
